{
  "source": "paper PMC5563081",
  "about": "“Modulating Protein-Protein Interactions of the Mitotic Polo-like Kinases to Target Mutant KRAS” (Cell Chemical Biology, 2017)",
  "key": {"[1]": {"system": "HCT116 BI 2536-Res. Clones", "test": "Viability of BI 2536-resistant HCT116 clones", "format": "cell-based, human", "experimental": "Viability is represented as percentage survival normalised to DMSO control. […] PCR reactions were carried out using Amplitaq Gold polymerase (Applied Biosystems N8080241) with a 25-cycle programme. […] Prepared samples were submitted for next generation sequencing using MiSeq Nano run with Nextera XT library preparation. Sequencing and subsequent bioinformatics were performed by Cambridge Genomic Services (University Of Cambridge)."}, "PLK1 PBD": {"biological_target": "PLK1 PBD (Homo sapiens, UniProt P53350)", "sequence (P53350 345-603)": "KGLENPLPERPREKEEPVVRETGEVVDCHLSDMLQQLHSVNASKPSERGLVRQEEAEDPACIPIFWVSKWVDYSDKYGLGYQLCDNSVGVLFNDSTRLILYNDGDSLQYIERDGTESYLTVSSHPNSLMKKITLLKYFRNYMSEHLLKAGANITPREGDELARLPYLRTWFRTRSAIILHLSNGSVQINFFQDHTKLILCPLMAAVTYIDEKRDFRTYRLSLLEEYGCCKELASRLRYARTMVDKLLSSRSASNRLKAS", "test": "Isothermal titration calorimetry", "format": "binding", "parameters": "In all titrations, PBDaa345-603 protein was used at 25 μM; GST (N, cleaved yes); made in house; host or cells: E. coli C41", "details": "ITC, 20 °C", "experimental": "In all titrations, PBDaa345-603 protein was used at 25 μM and buffered in HEPES (50 mM, pH 7.4), NaCl (200 mM), and DTT (1mM). Protein was diluted into buffer with DMSO at 5% (v/v). Poloppin was prepared by diluting from DMSO stock into the same buffer containing DMSO at 5% (v/v). Great care was taken to match the concentration of DMSO in the ligand and protein samples as closely as possible. In a typical experiment, protein (25 μM) was loaded in the sample cell, and a total of 20 injections of 8μL were made at 2 min intervals from a 200 μL syringe rotating at 1000 rpm and loaded with ligand solution (0.5 mM). […] The thermodynamic parameters were obtained by fitting the data to a single-site binding model with a stoichiometry of 1. ITC experiments were performed at 20 °C with a MicroCal ITC200 instrument, and all data were analysed with the software implemented in Origin (version 7) ([Scott et al., 2015])."}, "HeLa": {"system": "HeLa", "test": "GI50 for cell killing, HeLa", "format": "cell-based", "details": "Homo sapiens"}, "[2]": {"system": "HeLa cells expressing KRAS G12D", "test": "Live-cell imaging of cell fate, HeLa KRAS G12D", "format": "cell-based, human", "details": "Poloppin at GI50 dose, 3% in DMSO controls", "experimental": "Five x10^4 cells were seeded on each well of 4-well coverglass Lab-Tek chambers in a volume of 800 μl. HeLa-G12D cells were induced with Doxycycline (Dox) 24h before seeding and kept in Dox for the rest of the experiment.\nFor live cell imaging analysis image sequences were viewed using ImageJ software and cell fate was analysed manually. Time spent in mitosis for different groups was compared with a Kruskal-Wallis test and Dunn's multiple comparison correction."}},
  "data": [
    {"smiles": "O=C(O)CCc1ccc(-c2ccc(Br)cc2)n1-c1ccccc1C(F)(F)F", "note": "[Poloppin]", "values": [
      {"measurement": "GI50", "setting": "[1]; BI2536-Res. (Mean), 72 h", "result": "retain sensitivity"},
      {"measurement": "GI50", "setting": "[1]; Homo sapiens, HCT-116, 72 h", "result": 7.7, "unit": "µM"},
      {"measurement": "Kd", "setting": "PLK1 PBD", "result": 29.5, "unit": "µM"},
      {"measurement": "GI50", "setting": "HeLa", "result": 10, "unit": "µM"},
      {"measurement": "frequency of death in mitosis", "setting": "[2]", "result": 36, "unit": "%"}
    ]}
  ]
}
